Data as given in US20100058650A1, “HYDROXYMETHYLFURFURAL ETHERS FROM SUGARS OR HMF AND MIXED ALCOHOLS” (FURANIX TECHNOLOGIES B.V., priority 2007, published 2010).

Assay: Fuel solubility: miscibility of blends with commercial diesel
Format: physicochemical
Description: Fuel solubility is a primary concern for diesel fuel applications. Not all highly polar oxygenates have good solubility in the current commercial diesel fuels.

With CCOCc1ccc(C=O)o1 [EMF, 5-(ethoxymethyl)furfural] the “Miscibility of blend with commercial diesel” value (from here on “Miscibility of blend”) (5 vol % blend with commercial diesel) was “completely miscible”, the “Miscibility of blend” value (25 vol % blend with commercial diesel) was “phase separation occurs” and the “Miscibility of blend” value (40 vol % blend with commercial diesel) was “phase separation occurs”.
